Legend:
[1] = tested on: T. cruzi Tulahuen trypomastigotes; assay: T. cruzi trypomastigote assay (Cell Titer-Glo viability, ATP luminescence); assay type: cell-based, Trypanosoma cruzi; conditions: for Trypomastigotes pIC50 48 hours: 48 hours incubation; for Trypomastigotes pIC50 48 hours / Trypomastigotes pIC50 72 hours: pIC50 = -log10 IC50 in molar units; for Trypomastigotes pIC50 72 hours: 72 hours incubation; for 72 pIC50: 72 h
In short: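 Tulahuen trypomastigotes from infected LLC-MK2 culture supernatants (days 5–8) plated at 5 × 10^4 per well in DMEM/2% FBS with compound at 5 μM single-shot final or in dose response. Viability by CellTiter-Glo ATP luminescence after 10 min at room temperature, normalised to no-cell (100%) and DMSO (0%) controls.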

[2] = tested on: H9c2 (rat cardiomyocytes); assay: RoK assay, number of host cells nuclei (drug-related cytotoxicity, H9c2 output, Cmin_Tox); conditions: H9c2 host cells
In short: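 H9c2 rat cardiomyocytes infected with T. cruzi trypomastigotes, plated in 384-well format, compound-treated and imaged over a time course. Host nuclei counted after formaldehyde fixation and DRAQ5 staining by high-content imaging. Cmin_Tox is the lowest concentration reducing host cells below 50% of initial density.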

TcCYP51 = conditions: formerly reported; cited from earlier work

| SMILES | Trypomastigotes pIC50 48 hours [1] | Trypomastigotes pIC50 72 hours [1] | 72 pIC50 (trypomastigotes, raw data of Fig 1D) ([1]; 72 hours, plotted values, censored values given without sign) | 48 pIC50 ([1]; trypomastigote assay, 48 h, figure 1A) | 72 pIC50 ([1]; trypomastigote assay, figure 1A) | 72 pIC50 ([1]; trypomastigote assay, figure 1B) | Cmin_Tox [2] | CYP51 pIC50 (TcCYP51) |
| --- | --- | --- | --- | --- | --- | --- | --- | --- |
| Cc1c(C(=O)NCCCCn2ccnc2)oc2c(C)cccc12 [TCMDC-143304] | < 4.3 | < 4.3 | < 4.3 | < 4.3 | < 4.3 | < 4.3 | >50 µM | 7 |
| COc1ccc(C(=O)Nc2cc(C(F)(F)F)ccc2N2CCOCC2)c(OC)c1 [TCMDC-143310] | 5.8 | 6 | – | – | – | – | >50 µM | < 4 |
| COc1ccc(NS(=O)(=O)c2cc(NC(=O)Cc3ccc(C)cc3)ccc2N2CCOCC2)cc1 [TCMDC-143313] | 5.9 | 6.3 | – | – | – | – | 0.6 µM | < 4 |
| COc1cc(NC(=O)Nc2cccc(CNC(=O)OC3CCCCC3)c2)ccc1-c1cnco1 [TCMDC-143376] | – | 4.9 | – | – | – | – | 16.7 µM | 4.6 |

— PMC8318231, “Rate-of-Kill (RoK) assays to triage large compound sets for Chagas disease drug discovery: Application to GSK Chagas Box” (PLoS Neglected Tropical Diseases, 2021)
